Like-named read-outs stand apart in the source and are kept apart here.

Series [1] deals with T1, skeletal muscle CRC (skeletal muscle ryanodine receptor RyR1) (Oryctolagus cuniculus, UniProt P11716).
T1 construct: heavy sarcoplasmic reticulum vesicles from fast twitch skeletal muscle fused to planar lipid bilayer; single channel recording
As to the kind of experiment: single channel activity (open probability) of skeletal muscle Ca2+ release channel reconstituted in planar lipid bilayer. The note with it: sub-micromolar 4-MmC; FIG. 5. Type of series: biochemical, rabbit (New Zealand White). The procedure: Fast twitch skeletal muscle sarcoplasmic reticulum was isolated from New Zealand White rabbit, a rich source of skeletal receptors. Following isolation of a crude fraction, the SR was placed on a discontinuous sucrose gradient and a heavy fraction (HSR) was used for all single channel experiments. Ca^2+ release channel reconstitution into a bilayer membrane was carried out by the addition of SR vesicles to the cis side of a planar bilayer lipid membrane. Bilayers, made with a 5:3:2 mixture of phosphatidylethanolamine:phosphatidylserine:phosphatidylcholine (Avanti Polar Lipids) at 50 mg/ml in decane, were formed across a 150 μm hole drilled in a polystyrene cup separating two chambers of 0.7 ml each. The cis chamber contained 400 mM cesium methane sulfonate (CsMS), 50 μM CaCl2, 25 mM HEPES, pH 7.4, while the trans side contained 40 mM CsMS, 25 mM HEPES pH 7.4. SR vesicles, suspended in 0.4-0.6 M sucrose, 400 mM CsMS were added to the cis chamber at a final concentration of 5-20 μg/ml. […] Channel activity was then measured at a holding potential of +25 mV with respect to the trans (ground) side. […] The data were interfaced through a Digidata 1322A 16 bit data Acquisition System (Axon Instruments), stored filtered at 1 kHz and analyzed for single channel activity using pCLAMP software package (version 9.0, Axon Instruments, Burlingame, Calif.).

The nature of series [2]: electron donor activity (XTT reduction). As to conditions: Michaelis-Menten fit, read-out: Kd (concentration at which half maximal electron donor activity is observed). The class given is physicochemical. Here is the method: (§1) A sample buffer containing a compound to be tested and a photo-reactive dye (i.e., 10 μM methylene blue, eosin B or erythrosin B) can be continuously illuminated with white light (e.g., about 10 cm away from a halogen 20 W light source) and its spectral characteristics monitored as a function of time (e.g., using a HP8452A diode array spectrophotometer). This can be performed in the presence of oxygen. In general, oxygen dissolved in the solution may decrease the photochemical activity of the dye. To compensate and to increase the sensitivity of the method, a comparatively high light intensity can be used (e.g., in the range of about 1-3 mW/cm^2).
(§2) To determine if a compound is an electron acceptor, an electron donor (e.g., NADH or EDTA) can be added to the sample buffer to supply electrons to the photo-excited dye. The electron donor reduces the concentration of the dye cation radical and maintains an increased concentration of the dye anion radical. To test whether a compound is an electron donor, no separate electron donor is necessary. In both cases, a probe can be added (e.g., NBD-Cl or XTT) to react with superoxide and produce a detectable product. The product can be measured, for example, as an increase in absorbance at 470 nm. The difference between the probe absorbance at 470 nm in the presence of the compound to be tested and a control without the compound can be taken as a measure of redox activity of the compound.
When oxygen is unable to intercept all electrons from the dye anion radical, the dye anion radical may disproportionate and form a colorless compound. This process also may serve as a detectable variable corresponding to the redox activity of the tested compound. A compound with electron-acceptor properties intercepts electrons from dye anion radical and thus slows down the rate of dye photo-bleaching. A compound with electron-donor properties donates electrons to the dye cation radical, thus stabilizing the dye anion radical and increasing the rate of dye photo-bleaching. See also International Publication No. WO 2006/086670. […]

The target in series [3] is T2, RyR1 (skeletal muscle CRC) (Oryctolagus cuniculus, UniProt P11716).
T2 construct: from tissue; host or cells: fast twitch skeletal muscle of New Zealand White rabbit, heavy sarcoplasmic reticulum fraction
Description: Single Ca2+ channel analysis: open probability of skeletal muscle CRC reconstituted in planar bilayer. The class given is biochemical, rabbit. Here is the method: Fast twitch skeletal muscle sarcoplasmic reticulum was isolated from New Zealand White rabbit, a rich source of skeletal receptors. Following isolation of a crude fraction, the SR was placed on a discontinuous sucrose gradient and a heavy fraction (HSR) was used for all single channel experiments. Ca^2+ release channel reconstitution into a bilayer membrane was carried out by the addition of SR vesicles to the cis side of a planar bilayer lipid membrane. Bilayers, made with a 5:3:2 mixture of phosphatidylethanolamine:phosphatidylserine:phosphatidylcholine (Avanti Polar Lipids) at 50 mg/ml in decane, were formed across a 150 μm hole drilled in a polystyrene cup separating two chambers of 0.7 ml each. […] SR vesicles, suspended in 0.4-0.6 M sucrose, 400 mM CsMS were added to the cis chamber at a final concentration of 5-20 μg/ml.

Series [4] relates to Langendorff perfused rabbit hearts. Description: Dofetilide-induced arrhythmia (LQT2, EADs/TdP) in Langendorff perfused rabbit hearts. Type of series: in vivo. Here is the method:
(§3) FIG. 12A plots the transmembrane potential (Vm) and intracellular calcium level (Cai) over a 3-second period five minutes after administration of dofetilide (0.5 μM). FIG. 12B plots the transmembrane potential (Vm) and intracellular calcium level (Cai) over a 3-second period ten minutes after administration of dofetilide (0.5 μM).
(§4) EADs are triggered by spontaneous SR Ca^2+ release and increase in severity or frequency leading to TdP after a few minutes.

A further series concerns ventricular myocytes. The note with it: independent of the presence of FKBP12.6; Hunt et al. 2007; cited from earlier work.
Series [5] has as its system TNF-α female perfused mouse hearts. Description: Ca2+ transients in Langendorff perfused mouse heart (Rhod-2 fluorescence). The note with it: for effect on Ca2+ transients, in words: nanomolar concentrations. Type of series: in vivo. The text has this:
Ca^2+i transients were monitored in a Langendorff perfused mouse heart using Rhod-2 fluorescence.
It is believed that the faster and larger Ca^2+ transient is due to an increase in Ca^2+ load in the lumen of the SR caused by a reduced Ca^2+ “leak” from the SR.

Series [6] has as its system Langendorff perfused rabbit hearts. As to the kind of experiment: arrhythmia induced by dofetilide in Langendorff perfused rabbit hearts. The class given is in vivo. The note with it: with dofetilide 0.5 μM. Here is the method:
as §3, §4

The next series deals with RyR1 (Oryctolagus cuniculus, UniProt P11716). As to the kind of experiment: Thiol content of isolated RyR1 by CPM fluorescence. Type of series: biochemical. As to conditions: 10 mM tetracaine; control ~47 thiols per monomeric receptor.
The target in series [7] is reactive thiols on the RyR/CRC (Oryctolagus cuniculus, UniProt P11716). As to the kind of experiment: Redox potential of reactive thiols on RyR from rate of ryanodine binding vs solution redox potential. As to conditions: tetracaine 25 μM; control (20 μM Ca2+) −160.3±3.2 mV. The class given is biochemical.
A short description of series [8]: Electron donor activity: initial rate of XTT reduction. Type of series: physicochemical. As to conditions: initial rate of XTT reduction fit to Michaelis-Menton equation; read-out: Kd, concentration at which half maximal electron donor activity is observed. Here is the method:
as §1
as §2, with “In both cases, a probe can be added (e.g., NBD-Cl or XTT) to react with superoxide and produce a detectable product.” left out, “compound. […]” for “compound.”

Setting [9] is: skeletal muscle CRC, four parameter logistic curve fit, FIG. 2, read-out: IC50, concentration required to half maximally inhibit single channel activity.

T2 sequence (P11716 whole entry): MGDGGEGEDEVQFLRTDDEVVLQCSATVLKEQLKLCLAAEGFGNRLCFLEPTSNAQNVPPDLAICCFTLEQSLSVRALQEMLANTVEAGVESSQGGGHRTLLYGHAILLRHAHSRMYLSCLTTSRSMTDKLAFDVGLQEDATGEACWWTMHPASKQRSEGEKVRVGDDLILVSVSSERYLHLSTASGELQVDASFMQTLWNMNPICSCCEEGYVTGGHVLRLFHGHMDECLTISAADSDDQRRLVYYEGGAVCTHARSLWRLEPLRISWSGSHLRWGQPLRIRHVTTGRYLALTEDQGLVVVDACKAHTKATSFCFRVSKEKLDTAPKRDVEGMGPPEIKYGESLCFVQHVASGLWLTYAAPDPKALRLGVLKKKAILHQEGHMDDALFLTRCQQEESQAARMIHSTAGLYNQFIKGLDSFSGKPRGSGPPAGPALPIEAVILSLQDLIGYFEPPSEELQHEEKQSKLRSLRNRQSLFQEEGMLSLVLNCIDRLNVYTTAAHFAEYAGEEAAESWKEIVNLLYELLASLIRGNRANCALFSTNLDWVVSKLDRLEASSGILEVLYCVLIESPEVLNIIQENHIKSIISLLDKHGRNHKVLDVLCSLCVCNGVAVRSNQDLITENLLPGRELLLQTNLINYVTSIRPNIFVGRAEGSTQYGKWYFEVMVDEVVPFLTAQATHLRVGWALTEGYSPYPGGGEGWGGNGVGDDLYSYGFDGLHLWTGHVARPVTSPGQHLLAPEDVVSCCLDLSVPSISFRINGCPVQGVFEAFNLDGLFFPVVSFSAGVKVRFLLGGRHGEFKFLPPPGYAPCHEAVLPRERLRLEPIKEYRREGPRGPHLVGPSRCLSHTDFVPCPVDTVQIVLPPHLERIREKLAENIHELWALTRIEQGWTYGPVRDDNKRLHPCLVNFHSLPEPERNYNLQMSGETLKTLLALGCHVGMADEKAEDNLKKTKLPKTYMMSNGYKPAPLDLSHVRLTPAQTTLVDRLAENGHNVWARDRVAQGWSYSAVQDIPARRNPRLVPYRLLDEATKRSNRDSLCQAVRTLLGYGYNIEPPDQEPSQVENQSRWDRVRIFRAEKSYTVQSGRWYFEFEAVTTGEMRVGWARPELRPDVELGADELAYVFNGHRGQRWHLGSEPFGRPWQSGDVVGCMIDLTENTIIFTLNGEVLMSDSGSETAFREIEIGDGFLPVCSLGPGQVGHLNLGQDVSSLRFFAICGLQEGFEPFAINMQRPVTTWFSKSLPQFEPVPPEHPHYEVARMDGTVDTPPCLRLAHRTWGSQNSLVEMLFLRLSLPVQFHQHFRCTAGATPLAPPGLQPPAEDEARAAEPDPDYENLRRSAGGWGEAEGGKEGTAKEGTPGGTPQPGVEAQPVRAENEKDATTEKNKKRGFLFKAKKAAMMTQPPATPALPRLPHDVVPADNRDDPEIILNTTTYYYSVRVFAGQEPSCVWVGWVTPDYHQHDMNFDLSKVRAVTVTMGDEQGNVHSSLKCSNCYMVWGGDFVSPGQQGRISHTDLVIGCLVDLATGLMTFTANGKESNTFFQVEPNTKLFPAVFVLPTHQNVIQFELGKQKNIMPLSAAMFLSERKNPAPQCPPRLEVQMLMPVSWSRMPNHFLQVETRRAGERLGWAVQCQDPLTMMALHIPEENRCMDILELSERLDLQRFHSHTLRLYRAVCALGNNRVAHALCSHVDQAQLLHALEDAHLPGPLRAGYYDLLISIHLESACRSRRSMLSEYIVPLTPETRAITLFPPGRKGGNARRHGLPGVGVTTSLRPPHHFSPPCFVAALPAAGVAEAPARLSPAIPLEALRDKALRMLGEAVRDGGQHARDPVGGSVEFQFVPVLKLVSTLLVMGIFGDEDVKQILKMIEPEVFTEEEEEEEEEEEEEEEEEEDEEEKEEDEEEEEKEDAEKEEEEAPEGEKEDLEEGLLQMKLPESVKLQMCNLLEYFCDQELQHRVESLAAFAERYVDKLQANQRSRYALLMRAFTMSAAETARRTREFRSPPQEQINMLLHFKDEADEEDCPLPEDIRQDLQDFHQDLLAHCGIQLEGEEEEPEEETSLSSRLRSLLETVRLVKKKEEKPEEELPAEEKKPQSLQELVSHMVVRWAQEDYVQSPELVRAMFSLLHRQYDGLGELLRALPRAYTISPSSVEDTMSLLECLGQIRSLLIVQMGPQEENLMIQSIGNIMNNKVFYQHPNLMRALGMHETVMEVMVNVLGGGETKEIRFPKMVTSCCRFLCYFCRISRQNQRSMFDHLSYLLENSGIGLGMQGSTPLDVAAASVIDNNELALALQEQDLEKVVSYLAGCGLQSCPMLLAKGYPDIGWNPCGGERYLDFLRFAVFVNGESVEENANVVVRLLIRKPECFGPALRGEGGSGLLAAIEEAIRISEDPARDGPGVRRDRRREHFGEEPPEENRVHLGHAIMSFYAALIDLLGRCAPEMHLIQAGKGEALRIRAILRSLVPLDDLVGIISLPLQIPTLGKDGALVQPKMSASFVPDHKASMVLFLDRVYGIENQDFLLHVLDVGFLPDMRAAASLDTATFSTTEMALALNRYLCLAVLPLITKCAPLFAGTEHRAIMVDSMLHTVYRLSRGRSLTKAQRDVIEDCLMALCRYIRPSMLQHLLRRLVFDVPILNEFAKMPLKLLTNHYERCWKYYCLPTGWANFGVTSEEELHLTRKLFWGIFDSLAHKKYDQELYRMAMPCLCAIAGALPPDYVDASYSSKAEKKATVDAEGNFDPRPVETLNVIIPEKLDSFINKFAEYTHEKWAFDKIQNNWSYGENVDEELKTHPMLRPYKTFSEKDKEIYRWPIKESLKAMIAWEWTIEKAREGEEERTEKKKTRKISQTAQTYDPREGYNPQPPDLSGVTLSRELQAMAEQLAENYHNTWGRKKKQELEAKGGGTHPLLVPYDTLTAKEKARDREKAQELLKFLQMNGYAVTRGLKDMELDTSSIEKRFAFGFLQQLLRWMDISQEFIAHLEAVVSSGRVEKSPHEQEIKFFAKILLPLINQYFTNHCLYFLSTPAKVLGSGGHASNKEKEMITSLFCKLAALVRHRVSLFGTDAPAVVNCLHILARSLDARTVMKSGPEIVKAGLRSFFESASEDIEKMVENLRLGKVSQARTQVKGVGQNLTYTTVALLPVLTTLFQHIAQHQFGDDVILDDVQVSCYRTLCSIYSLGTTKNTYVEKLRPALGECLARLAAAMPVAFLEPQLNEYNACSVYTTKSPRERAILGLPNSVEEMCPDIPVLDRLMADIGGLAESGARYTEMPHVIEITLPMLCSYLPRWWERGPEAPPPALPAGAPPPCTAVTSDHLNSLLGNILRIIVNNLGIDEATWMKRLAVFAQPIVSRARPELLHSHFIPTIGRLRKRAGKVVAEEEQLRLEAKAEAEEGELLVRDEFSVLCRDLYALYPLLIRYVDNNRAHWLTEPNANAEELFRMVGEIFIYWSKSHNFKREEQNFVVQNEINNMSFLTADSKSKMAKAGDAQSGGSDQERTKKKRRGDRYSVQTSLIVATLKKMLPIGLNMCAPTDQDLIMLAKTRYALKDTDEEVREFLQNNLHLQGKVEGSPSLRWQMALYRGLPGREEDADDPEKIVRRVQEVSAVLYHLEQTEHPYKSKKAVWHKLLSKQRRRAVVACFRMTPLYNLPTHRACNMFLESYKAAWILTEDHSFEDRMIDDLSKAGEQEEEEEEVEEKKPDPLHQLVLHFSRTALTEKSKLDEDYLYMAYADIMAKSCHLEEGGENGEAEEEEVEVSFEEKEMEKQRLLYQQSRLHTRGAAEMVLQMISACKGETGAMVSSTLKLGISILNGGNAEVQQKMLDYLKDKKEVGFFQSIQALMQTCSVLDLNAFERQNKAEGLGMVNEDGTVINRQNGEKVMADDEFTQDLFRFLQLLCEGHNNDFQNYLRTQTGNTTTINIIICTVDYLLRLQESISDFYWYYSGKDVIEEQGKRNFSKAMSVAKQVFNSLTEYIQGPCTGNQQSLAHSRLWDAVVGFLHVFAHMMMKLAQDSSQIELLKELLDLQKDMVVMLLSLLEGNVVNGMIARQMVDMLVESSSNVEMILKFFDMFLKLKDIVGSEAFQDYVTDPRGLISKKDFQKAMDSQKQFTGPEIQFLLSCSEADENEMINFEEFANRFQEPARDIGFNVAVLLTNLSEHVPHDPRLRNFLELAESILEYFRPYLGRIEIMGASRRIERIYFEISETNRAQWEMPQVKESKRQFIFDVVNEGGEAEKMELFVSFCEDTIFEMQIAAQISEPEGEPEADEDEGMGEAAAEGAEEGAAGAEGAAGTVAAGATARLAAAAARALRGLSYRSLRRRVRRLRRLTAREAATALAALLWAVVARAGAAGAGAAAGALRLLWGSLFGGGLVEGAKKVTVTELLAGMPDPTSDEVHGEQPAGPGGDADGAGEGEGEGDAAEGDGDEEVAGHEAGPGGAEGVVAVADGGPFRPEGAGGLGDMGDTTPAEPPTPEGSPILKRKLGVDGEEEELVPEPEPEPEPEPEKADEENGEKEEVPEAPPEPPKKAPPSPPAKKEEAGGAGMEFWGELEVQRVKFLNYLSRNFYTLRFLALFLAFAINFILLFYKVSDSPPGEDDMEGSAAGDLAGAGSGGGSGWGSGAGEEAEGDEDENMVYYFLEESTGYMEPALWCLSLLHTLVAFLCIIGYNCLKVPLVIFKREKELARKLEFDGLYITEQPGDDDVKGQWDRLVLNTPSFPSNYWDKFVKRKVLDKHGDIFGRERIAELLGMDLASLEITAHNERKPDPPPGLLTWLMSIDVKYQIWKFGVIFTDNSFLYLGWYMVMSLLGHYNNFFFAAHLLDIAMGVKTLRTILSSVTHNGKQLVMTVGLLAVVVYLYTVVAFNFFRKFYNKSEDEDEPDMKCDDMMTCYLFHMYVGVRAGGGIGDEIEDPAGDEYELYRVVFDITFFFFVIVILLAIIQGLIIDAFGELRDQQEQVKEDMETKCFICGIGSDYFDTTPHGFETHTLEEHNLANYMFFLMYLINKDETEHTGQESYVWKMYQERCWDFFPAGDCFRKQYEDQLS
T2 sequence (P62943 2-108 partner limits assumed): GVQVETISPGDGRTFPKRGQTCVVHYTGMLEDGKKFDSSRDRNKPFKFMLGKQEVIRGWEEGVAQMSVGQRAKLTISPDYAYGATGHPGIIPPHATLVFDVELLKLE
Chain of RyR1 (P11716 whole entry): as the sequence (P11716 whole entry) above

As to `COc1ccc(O)cc1C` [4-MmC, 4-methoxy-3-methylphenol], in [1], the “decrease of open probability (Po) at sub-micromolar concentrations” value was “significantly decreased the open probability (Po)”. Besides, the Kd in [2] (listed as 4-methoxy-3-methyl phenol) is 13 µM; in series [2] it was roughly 13 µM. Further, in [3] (+10 μM 4-MmC after 6 mM caffeine (Po=0.071), 50 μM Ca2+, FIG. 3C), the “open probability Po” value came out at 0.015. The Ki in series [3] (skeletal muscle CRC, FIG. 5, unit inferred, read-out: Ki for inhibition of single channel activity) is roughly 0.5 µM. For the same compound, the “effect on open probability (Po), in words” value in series [3] (sub-micromolar concentrations, FIG. 5) is “significantly decreased”.
Regarding `CN(CCOc1ccc(NS(C)(=O)=O)cc1)CCc1ccc(NS(C)(=O)=O)cc1` [Dofetilide, dofetilide, reference compound], the “time to elicit EADs” value in series [4] (dofetilide 0.5 μM) came to 5 min. Moreover, the “pro-arrhythmic effect, in words” value in series [4] (dofetilide 0.5 μM, panel B, ten minutes) is reported as “promotes TdP”.
Turning to `COc1ccc2c(c1)CN(C(=O)CCN1CCC(Cc3ccccc3)CC1)CCS2` [K201, reference compound], the “spontaneous Ca2+ release” value in the series on ventricular myocytes is given as “suppresses spontaneous Ca^2+ release in ventricular myocytes”. For the same compound, the Kd in series [2] is 28 µM.
As to `COc1ccc2c(c1)CN(C(=O)CCN1CCC(Cc3ccccc3)CC1)CCS2` [K201], the “concentration at which amplitude of Ca2+ transients was adversely affected” value in [5] (mouse, in vivo) lay in the range of 10 to 25 µM. Moreover, the “effect on Ca2+ transients, in words” value in series [5] is “enhance Ca^2+ transients”. In series [3] (10 μM K201 after 20 μM FK506), the “effect on channel activity in the absence of FKBP12, in words” value is on record as “still inhibited channel activity”. The “open probability Po” value in series [3] (+5 μM K201, 20 μM Ca2+, control Po=0.107, FIG. 8B) was 0.060; in [3] (+10 μM K201, 20 μM Ca2+, control Po=0.107, FIG. 8C), 0.047; in series [3] (+10 μM K201 on FK506-treated (20 μM) channel, Po=0.106 before, FIG. 9C), 0.009. For the same compound, the IC50 in series [3] (IC50 for K201 inhibition of RyR1, FIG. 2, as restated in Example 4, unit inferred) was roughly 4 µM; in series [3] (setting [9]) it was 3.98 ± 0.79 µM.
For `COc1ccc2c(c1)CN(C(=O)CCN1CCC(Cc3ccc4c(c3)OCO4)CC1)CCS2` [[1,3]dioxole derivative of K201, 3-(4-(benzo[d][1,3]dioxol-5-ylmethyl)piperidin-1-yl)-1-(7-methoxy-2,3-dihydrobenzo[f][1,4]thiazepin-4(5H)-yl)propan-1-one], the “effect on arrhythmias induced by dofetilide, in words” value in [4] (1 μM test compound, dofetilide 0.5 μM) is listed as “reverse arrhythmias”. The “effect on EADs and AP shape, in words” value in series [4] (1.0 μM, dofetilide 0.5 μM, adult female rabbit hearts paced at 1.2 second intervals) is reported as “all EADs were suppressed”. Further, in [4] (continuous perfusion with dofetilide and test compound), the “duration of protective effects” value turned out to be 20 min. The “effect on amount of SR Ca2+ release compared to controls, in words” value in series [5] (high concentrations) was “did not reduce the amount of SR Ca^2+ release”. For the same compound, in series [5] (lowest concentration stated (as low as)), the “concentration causing enhancement of fractional change in Rhod-2 fluorescence (Ca2+ transient)” value is reported as 10 nM. In series [5], the “effect on Ca2+ transients, in words” value was “enhance Ca^2+ transients”. The IC50 in series [3] (setting [9]) turned out to be 0.24 ± 0.05 µM. Further, in series [3] (skeletal muscle CRC, ratio of IC50 values), the “potency of inhibition of single channel activity relative to K201” value is on record as “about 16 times”.
On to `COc1ccc2c(c1)CN(C(=O)CCN1CCC(Cc3ccc4c(c3)OCO4)CC1)CCS2` [[1,3]dioxole derivative, 3-(4-(benzo[d][1,3]dioxol-5-ylmethyl)piperidin-1-yl)-1-(7-methoxy-2,3-dihydrobenzo[f][1,4]thiazepin-4(5H)-yl)propan-1-one], for which, in series [6] (1.0 μM), the action potential shape entry is recorded as “the normal AP shape was restored”; the “elimination of EADs and delayed afterdepolarizations (DADs)” value was “eliminated both EADs and delayed afterdepolarizations (DADs)”. Besides, the “reversal of arrhythmias induced by dofetilide” value in series [6] (1 μM, FIG. 12) is listed as “can reverse arrhythmias induced by dofetilide”.
On to `CCCCNc1ccc(C(=O)OCCN(C)C)cc1` [tetracaine], for which the “number of thiols reacting with CPM” value at RyR1 is roughly 70 per monomer. Also, the “redox potential of the reactive thiols” value in series [7] was −147.7±2.8 mV.
For “FKBP12: FK506 binding protein (calstabin1) that binds RyR1; endogenous electron donor”, the Kd in [8] was roughly 12.4 µM.

The values above are taken from US8933129B2, “Compounds and methods for modulating activity of calcium release channels” (State of Oregon by and through the State Board of Higher …, priority 2009, dated 2015).
